Reference: patent US12139487B2, “Compounds and uses thereof” (Foghorn Therapeutics Inc., priority 2022, dated 2024)

Assays:
BRG-1 = biological target: T1, BRG-1 (Homo sapiens, UniProt P51532); assay: ATPase catalytic activity assay (ADP-Glo), BRG-1; assay type: biochemical; details: Table 10, read-out: BRG1 IC50
T1 construct: made in house; host or cells: High Five insect cells
Procedure: (§1) The ATPase catalytic activity of BRM or BRG-1 was measured by an in vitro biochemical assay using ADP-Glo™ (Promega, V9102). The ADP-Glo™ kinase assay is performed in two steps once the reaction is complete. The first step is to deplete any unconsumed ATP in the reaction. The second step is to convert the reaction product ADP to ATP, which will be utilized by the luciferase to generate luminesce and be detected by a luminescence reader, such as Envision.
Then, following addition of 5 μL of ADP-Glo™ Reagent provided in the kit, the reaction incubates at room temperature for 40 minutes. Then, 10 μL of Kinase Detection Reagent provided in the kit is added to convert ADP to ATP, and the reaction incubates at room temperature for 60 minutes. Finally, luminescence measurement is collected with a plate-reading luminometer, such as Envision.

BRM = biological target: T2, BRM (Homo sapiens, UniProt P51531); assay: ATPase catalytic activity assay (ADP-Glo), BRM; assay type: biochemical; details: Table 10; for Ratio (BRG1 IC50 (μM) divided by BRM IC50 (μM)): ATPase assay, selectivity BRG1/BRM; for IC50: ATPase catalytic activity assay (ADP-Glo)
T2 construct: made in house; host or cells: High Five insect cells
T2 sequence (P51531 whole entry): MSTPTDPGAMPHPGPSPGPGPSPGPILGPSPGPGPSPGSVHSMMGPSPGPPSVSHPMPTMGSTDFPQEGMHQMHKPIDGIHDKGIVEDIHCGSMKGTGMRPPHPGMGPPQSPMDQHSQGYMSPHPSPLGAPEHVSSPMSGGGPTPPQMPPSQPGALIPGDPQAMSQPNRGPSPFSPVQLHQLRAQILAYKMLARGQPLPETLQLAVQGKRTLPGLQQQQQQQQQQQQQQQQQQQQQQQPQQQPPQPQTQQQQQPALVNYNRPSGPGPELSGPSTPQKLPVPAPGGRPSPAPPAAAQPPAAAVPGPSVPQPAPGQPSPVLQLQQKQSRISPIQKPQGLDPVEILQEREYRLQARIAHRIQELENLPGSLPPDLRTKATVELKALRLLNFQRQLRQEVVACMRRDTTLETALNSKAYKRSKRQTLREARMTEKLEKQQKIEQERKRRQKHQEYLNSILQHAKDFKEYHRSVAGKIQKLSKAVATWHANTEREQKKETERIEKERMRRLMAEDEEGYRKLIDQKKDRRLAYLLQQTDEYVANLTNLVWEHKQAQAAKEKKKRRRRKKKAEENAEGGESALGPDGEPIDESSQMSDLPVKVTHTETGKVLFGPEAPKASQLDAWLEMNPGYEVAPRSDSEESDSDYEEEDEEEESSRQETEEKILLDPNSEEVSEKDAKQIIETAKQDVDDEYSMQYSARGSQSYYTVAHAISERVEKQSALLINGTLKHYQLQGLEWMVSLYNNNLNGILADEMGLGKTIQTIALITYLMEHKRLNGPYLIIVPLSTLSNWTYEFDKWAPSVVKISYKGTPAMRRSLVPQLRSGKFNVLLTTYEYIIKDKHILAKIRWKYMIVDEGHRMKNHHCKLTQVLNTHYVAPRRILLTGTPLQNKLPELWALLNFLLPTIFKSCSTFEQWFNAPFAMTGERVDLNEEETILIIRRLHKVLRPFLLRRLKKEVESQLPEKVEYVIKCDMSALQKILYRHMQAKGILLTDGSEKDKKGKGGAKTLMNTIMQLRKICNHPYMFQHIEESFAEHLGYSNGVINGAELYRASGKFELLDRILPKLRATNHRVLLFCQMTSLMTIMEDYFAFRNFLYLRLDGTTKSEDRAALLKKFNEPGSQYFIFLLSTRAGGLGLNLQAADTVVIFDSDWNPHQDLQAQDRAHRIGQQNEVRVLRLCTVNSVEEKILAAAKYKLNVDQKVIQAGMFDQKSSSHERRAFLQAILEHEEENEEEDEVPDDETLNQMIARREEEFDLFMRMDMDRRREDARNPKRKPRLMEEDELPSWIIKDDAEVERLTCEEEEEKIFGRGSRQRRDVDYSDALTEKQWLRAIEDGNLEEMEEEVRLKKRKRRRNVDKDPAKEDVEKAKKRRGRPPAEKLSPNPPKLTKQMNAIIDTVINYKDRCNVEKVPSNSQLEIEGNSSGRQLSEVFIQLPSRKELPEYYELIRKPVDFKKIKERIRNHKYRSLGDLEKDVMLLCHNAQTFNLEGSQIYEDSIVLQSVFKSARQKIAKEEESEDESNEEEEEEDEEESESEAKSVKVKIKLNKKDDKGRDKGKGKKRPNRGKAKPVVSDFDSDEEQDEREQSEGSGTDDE
Procedure: as §1
The assay reaction mixture […] contains 30 nM of BRM or BRG-1, 20 nM salmon sperm DNA (from Invitrogen, UltraPure™ Salmon Sperm DNA Solution, cat #15632011), and 400 μM of ATP in the ATPase assay buffer, which comprises of 20 mM Tris, pH 8, 20 mM MgCl2, 50 mM NaCl, 0.1% Tween-20, and 1 mM fresh DTT (Pierce™ DTT (Dithiothreitol), cat #20290). The reaction is initiated by the addition of the 2.5 μL ATPase solution to 2.5 μL ATP/DNA solution on low volume white Proxiplate-384 plus plate (PerkinElmer, cat #6008280) and incubates at room temperature for 1 hour. Then, following addition of 5 μL of ADP-Glo™ Reagent provided in the kit, the reaction incubates at room temperature for 40 minutes. Then, 10 μL of Kinase Detection Reagent provided in the kit is added to convert ADP to ATP, and the reaction incubates at room temperature for 60 minutes. Finally, luminescence measurement is collected with a plate-reading luminometer, such as Envision.

T1 sequence (P51532 whole entry): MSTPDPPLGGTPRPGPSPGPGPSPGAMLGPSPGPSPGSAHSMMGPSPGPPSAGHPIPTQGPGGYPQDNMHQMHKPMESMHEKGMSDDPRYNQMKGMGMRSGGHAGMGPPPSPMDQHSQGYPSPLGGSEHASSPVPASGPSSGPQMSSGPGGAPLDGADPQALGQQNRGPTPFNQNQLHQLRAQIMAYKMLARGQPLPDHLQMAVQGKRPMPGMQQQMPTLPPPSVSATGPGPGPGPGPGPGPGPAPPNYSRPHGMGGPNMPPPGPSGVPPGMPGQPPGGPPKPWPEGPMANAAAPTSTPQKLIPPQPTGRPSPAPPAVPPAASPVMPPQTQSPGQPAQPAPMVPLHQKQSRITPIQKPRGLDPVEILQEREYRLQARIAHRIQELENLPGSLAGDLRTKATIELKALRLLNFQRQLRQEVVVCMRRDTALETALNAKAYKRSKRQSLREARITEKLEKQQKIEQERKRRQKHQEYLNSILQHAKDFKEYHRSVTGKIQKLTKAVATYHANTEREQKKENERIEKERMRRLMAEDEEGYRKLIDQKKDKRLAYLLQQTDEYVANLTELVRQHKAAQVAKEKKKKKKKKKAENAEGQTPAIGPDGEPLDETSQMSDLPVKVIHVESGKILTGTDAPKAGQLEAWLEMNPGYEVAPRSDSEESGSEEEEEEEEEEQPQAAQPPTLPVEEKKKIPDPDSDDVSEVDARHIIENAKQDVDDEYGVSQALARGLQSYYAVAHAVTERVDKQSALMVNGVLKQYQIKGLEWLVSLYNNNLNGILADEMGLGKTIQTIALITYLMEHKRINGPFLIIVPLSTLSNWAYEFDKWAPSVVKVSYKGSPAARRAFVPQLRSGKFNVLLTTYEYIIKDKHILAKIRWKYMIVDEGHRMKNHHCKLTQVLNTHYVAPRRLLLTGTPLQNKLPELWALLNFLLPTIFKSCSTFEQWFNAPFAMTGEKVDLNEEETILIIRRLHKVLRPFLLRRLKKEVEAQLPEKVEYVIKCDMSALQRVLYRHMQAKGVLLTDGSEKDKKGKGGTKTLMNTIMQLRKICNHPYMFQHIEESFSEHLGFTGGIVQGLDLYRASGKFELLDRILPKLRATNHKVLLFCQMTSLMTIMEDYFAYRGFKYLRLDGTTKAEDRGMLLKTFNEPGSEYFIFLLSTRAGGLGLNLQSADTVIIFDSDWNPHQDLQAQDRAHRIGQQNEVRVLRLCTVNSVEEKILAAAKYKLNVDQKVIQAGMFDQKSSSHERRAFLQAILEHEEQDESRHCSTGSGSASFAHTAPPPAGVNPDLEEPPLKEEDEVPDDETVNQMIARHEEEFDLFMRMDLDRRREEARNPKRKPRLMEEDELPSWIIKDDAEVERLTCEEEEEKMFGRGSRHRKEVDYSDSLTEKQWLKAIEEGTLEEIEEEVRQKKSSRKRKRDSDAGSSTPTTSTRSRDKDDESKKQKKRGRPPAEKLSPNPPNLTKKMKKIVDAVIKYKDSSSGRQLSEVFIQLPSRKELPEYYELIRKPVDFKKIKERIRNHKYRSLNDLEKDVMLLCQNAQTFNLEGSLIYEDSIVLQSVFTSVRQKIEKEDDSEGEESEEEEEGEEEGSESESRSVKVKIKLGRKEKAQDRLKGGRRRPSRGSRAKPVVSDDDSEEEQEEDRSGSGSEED

SMILES | IC50 (BRG-1) [nM] | Ratio (BRG1 IC50 (μM) divided by BRM IC50 (μM)) (BRM) | IC50 (BRM) [nM]
C[C@@H]1CN(c2cccc(-c3ccc4cnc(CNC(=O)c5ccc6c(c5)S(=O)(=O)[C@@H](F)CN(C)C6)cc4n3)n2)C[C@H](C)O1 (single isomer, unassigned) [Compound 317] | 1760 | 7.78 | 227
C[C@@H]1CN(c2cccc(-c3ccc4cnc(CNC(=O)c5ccc6c(c5)S(=O)(=O)[C@@H](F)CN(C)C6)cc4n3)n2)C[C@H](C)O1 [Compound 1, (R)—N-((2-(6-((2S,6R)-2,6-dimethylmorpholino)pyridin-2-yl)-1,6-naphthyridin-7-yl)methyl)-2-fluoro-4-methyl-2,3,4,5-tetrahydrobenzo[f][1,4]thiazepine-8-carboxamide 1,1-dioxide] | 21.4 | 7.29 | 2.9
COCCn1c(C)cc2c(-c3ccc4cnc(CNC(=O)c5cc(F)c6c(c5)S(=O)(=O)[C@@H](F)CCO6)cc4n3)cccc21 [Compound 2] | 10.5 | 18.80 | 0.6
[2H]C1([2H])OC([2H])([2H])[C@H](F)S(=O)(=O)c2cc(C(=O)NCc3cc4nc(N5CCOc6cc(C7CC7)cnc65)ccc4cn3)cc(F)c21 [Compound 3] | 25.2 |  | 0.8
CCOc1ccnc2c1CCCN2c1ccc2cnc(CNC(=O)c3cc(F)c4c(c3)S(=O)(=O)[C@@H](F)CCO4)cc2n1 [Compound 4] | 16.9 | 12.99 | 1.1
C[C@@H]1CN(c2cccc(-c3ccc4cnc(CNC(=O)c5cc(F)c6c(c5)S(=O)(=O)[C@H](F)CCCO6)cc4n3)n2)C[C@H](C)O1 [Compound 5] | 10.9 | 9.64 | 1.1
O=C(NCc1cc2nc(N3CCOc4cc(C5CC5)cnc43)ccc2cn1)c1cc(F)c2c(c1)S(=O)(=O)[C@@H](F)COC2 [Compound 8] | 22.3 | 14.89 | 1.3
O=C(NCc1cc2cc(N3CCOc4cc(C5CC5)cnc43)ccc2cn1)c1cc(F)c2c(c1)S(=O)(=O)[C@@H](F)COC2 [Compound 9] | 30.2 | 23.22 | 1.3
COCc1cc2c(c(F)c1Cl)N(c1ccc3cnc(CNC(=O)c4cc(F)c5c(c4)S(=O)(=O)[C@@H](F)CCO5)cc3n1)CCO2 [Compound 10] | 15.7 | 11.90 | 1.3
CCOc1ccnc2c1OCCN2c1ccc2cnc(CNC(=O)c3cc(F)c4c(c3)S(=O)(=O)[C@@H](F)COC4)cc2n1 [Compound 11] | 14.2 | 9.50 | 1.4
CCO[C@@H]1CCN(c2cccc(-c3ccc4cnc(CNC(=O)c5cc(F)c6c(c5)S(=O)(=O)[C@@H](F)COC6)cc4n3)n2)C1 [Compound 12] | 16.2 | 11.63 | 1.4
C[C@H]1C[C@@H]1c1ccc2c(n1)N(c1ccc3cnc(CNC(=O)c4cc(F)c5c(c4)S(=O)(=O)[C@@H](F)COC5)cc3n1)CCO2 [Compound 13] | 24.3 | 14.77 | 1.5
O=C(NCc1cc2nc(N3CCCc4c3ncc(F)c4OC3CC3)ccc2cn1)c1cc(F)c2c(c1)S(=O)(=O)[C@@H](F)CCO2 [Compound 15] | 16.6 | 11.06 | 1.5
C[C@@H]1CN(c2nccc(-c3ccc4cnc(CNC(=O)c5cc(F)c6c(c5)S(=O)(=O)[C@@H](F)CCO6)cc4c3)n2)C[C@H](C)O1 [Compound 16] | 17.8 | 10.27 | 1.5
CCN(CC)c1cnc2c(c1)OCCN2c1ccc2cnc(CNC(=O)c3cc(F)c4c(c3)S(=O)(=O)[C@@H](F)COC4)cc2n1 [Compound 17] | 23.4 | 12.76 | 1.5
O=C(NCc1cc2nc(N3CCCc4c(OC5CC5)ccnc43)ccc2cn1)c1cc(F)c2c(c1)S(=O)(=O)[C@@H](F)CCO2 [Compound 18] | 24 | 15.43 | 1.5
C[C@@H]1CN(c2cncc(-c3ccc4cnc(CNC(=O)c5cc(F)c6c(c5)S(=O)(=O)[C@@H](F)CCO6)cc4c3)n2)C[C@H](C)O1 [Compound 19, (4R)—N-[[6-[6-[(2S,6R)-2,6-dimethylmorpholin-4-yl]pyrazin-2-yl]-3-isoquinolyl]methyl]-4,9-difluoro-5,5-dioxo-3,4-dihydro-2H-1,5λ6-benzoxathiepine-7-carboxamide] | 20.7 | 13.20 | 1.6

SMILES | IC50 (BRG-1) [nM] | Ratio (BRG1 IC50 (μM) divided by BRM IC50 (μM)) (BRM) | IC50 (BRM) [nM]
C[C@H]1C[C@@H]1c1ccc2c(n1)N(c1ccc3cnc(CNC(=O)c4cc(F)c5c(c4)S(=O)(=O)[C@@H](F)CCO5)cc3n1)CCO2 [Compound 20] | 44.7 | 26.66 | 1.6
Cc1cc(C(=O)NCc2cc3nc(-c4cccc(N5C[C@@H](C)O[C@@H](C)C5)n4)ccc3cn2)cc2c1COC[C@H](F)S2(=O)=O [Compound 21] | 28.3 | 16.50 | 1.6
C[C@@H]1CN(c2cccc(-c3ccc4cnc(CNC(=O)c5ccc6c(c5)S(=O)(=O)[C@@H](F)CCO6)cc4n3)n2)C[C@H](C)O1 [Compound 22] | 16.2 | 9.93 | 1.6
[2H]C1([2H])OC([2H])([2H])[C@H](F)S(=O)(=O)c2cc(C(=O)NCc3cc4nc(-c5ccc(C(F)F)nc5OC)ccc4cn3)cc(F)c21 [Compound 23] | 37.9 |  | 1.6
CO[C@H](C)COc1ccc2c(c1)N(c1ccc3cnc(CNC(=O)c4cc(F)c5c(c4)S(=O)(=O)[C@@H](F)CCO5)cc3n1)CCO2 [Compound 24] | 31.1 | 18.65 | 1.7
O=C(NCc1cc2nc(N3CCOc4cc(C5(C(F)F)CC5)cnc43)ccc2cn1)c1cc(F)c2c(c1)S(=O)(=O)[C@@H](F)COC2 [Compound 25] | 43.9 | 21.51 | 1.7
O=C(NCc1cc2nc(N3CCOc4ccc([C@H]5C[C@@H]5C(F)F)nc43)ccc2cn1)c1cc(F)c2c(c1)S(=O)(=O)[C@@H](F)COC2 [Compound 26] | 39.1 | 21.77 | 1.7
CCOc1ccnc2c1OCCN2c1ccc2cnc(CNC(=O)c3cc(Cl)c4c(c3)S(=O)(=O)[C@@H](F)COC4)cc2n1 [Compound 27] | 19.5 | 11.52 | 1.8
Cc1cc(C(=O)NCc2cc3nc(N4CCOc5cc(N6CC[C@H]6C)cnc54)ccc3cn2)cc2c1COC[C@H](F)S2(=O)=O [Compound 28] | 42.2 | 22.66 | 1.8
CCOc1nc(C(F)F)ccc1-c1ccc2cnc(CNC(=O)c3cc(F)c4c(c3)S(=O)(=O)[C@@H](F)COC4)cc2n1 [Compound 29] | 35 | 22.36 | 1.8
O=C(NCc1cc2nc(N3CCOc4cc(N5CC(F)C5)cnc43)ccc2cn1)c1cc(F)c2c(c1)S(=O)(=O)[C@@H](F)COC2 [Compound 30] | 39.1 | 19.40 | 1.8
O=C(NCc1cc2nc(N3CCOc4cc(N5CC[C@H]5CF)cnc43)ccc2cn1)c1cc(F)c2c(c1)S(=O)(=O)[C@@H](F)CCO2 [Compound 31] | 33 | 18.05 | 1.8
O=C(NCc1cc2nc(N3CCOc4cc(C(F)F)cnc43)ccc2cn1)c1cc(F)c2c(c1)S(=O)(=O)[C@@H](F)COC2 [Compound 32] | 36.7 | 18.96 | 1.9
CN(C)c1cnc2c(c1)OCCN2c1ccc2cnc(CNC(=O)c3cc(F)c4c(c3)S(=O)(=O)[C@@H](F)COC4)cc2n1 [Compound 33] | 18.9 | 11.17 | 1.9
COc1cc(C(=O)NCc2cc3nc(-c4ccc(OC(F)F)c(C5CC5)n4)ccc3cn2)cc2c1COC[C@H](F)S2(=O)=O [Compound 329] | 1350 |  | 
CCOc1cccc(-c2ccc3cnc(CNC(=O)c4cc(F)c5c(c4)S(=O)(=O)[C@@H](F)CCO5)cc3n2)n1 [Compound 330] | 351 |  | 
